Measurements reported in patent publication US8889704B2 (Array BioPharma Inc., priority 2011, dated 2014).
Structures can show the parent of a compound that is named as a salt.

Experiments:
Type in all cases: biochemical
PIM-1 = PIM-1 (Homo sapiens, UniProt P11309); test: Enzyme PIM-1 Assay ([33P]ATP incorporation into PIM2tide, filter plate); settings: averaged IC50; 35 μM ATP, 7.5 μM PIM2tide, 0.25 nM PIM-1, 60 min at 22° C.
Description: (§1) The assay for the determination of PIM-1 activity is based on the incorporation of [^33P]PO4 from [γ-^33P]ATP into PIM2tide substrate and capture of the radiolabeled peptide onto a Whatman P81 (phosphocellulose) filter plate. The amount of radiolabeled product is then measured by liquid scintillation counting. The final buffer conditions were as follows: 20 mM K^+MOPS, pH 7.4, 10 mM MgCl2, 0.005% Tween-20, 1 mM DTT. Assay mixtures contained 35 μM [γ-^33P]ATP (20 μCi/mL), 7.5 μM PIM2tide and 0.25 nM PIM-1 in a total volume of 50 μL. Incubations were carried out for 60 min at 22° C. and quenched with 75 μL of 200 mM H3PO4, filtered through a Whatman P81 plate and washed (1×200 μL and 5×100 μL) with 200 mM H3PO4. Fifty μL of liquid scintillation cocktail were then added per well, and the plate was counted for 30 s/well using a TopCount NXT.
(§2) Compounds were prepared at 50× the final concentration in DMSO by conducting 3-fold serial dilutions from a 500-μM intermediate dilution to give a 10-point dosing curve having a high dose of 10 μM. One-μL aliquots of these were then transferred to the assay mixtures above to give a final concentration of DMSO of 2%. A standard or reference compound was typically included on each assay plate to validate that plate. For each plate, percent of control (POC) values were calculated for each well. IC50 values were estimated from the POC values using a standard 4-parameter logistic model. The IC50 is defined as the concentration of inhibitor at which the POC equals 50 for the fitted curve.

recombinant rat PIM-3 = recombinant rat PIM-3 (Rattus norvegicus, UniProt O70444); test: PIM-3 Assay (as Example A); settings: averaged IC50; 30 μM ATP, 3.75 μM PIM2tide, 0.5 nM PIM-3
Description: as §1, §2
Assay was performed as described in Example A, using 30 μM [γ-^33P]ATP (20 μCi/mL), 3.75 μM PIM2tide and 0.5 nM recombinant rat PIM-3 in place of PIM-1.

[1] = target: T1, GST-tagged recombinant full-length human Pim-2 (Homo sapiens, UniProt Q9P1W9); test: PIM-2 Assay (as Example A); settings: averaged IC50; 4 μM ATP, 1.0 μM PIM2tide, 1.5 nM Pim-2
T1 construct: GST-tagged recombinant full-length human Pim-2; GST
T1 sequence (Q9P1W9 whole entry): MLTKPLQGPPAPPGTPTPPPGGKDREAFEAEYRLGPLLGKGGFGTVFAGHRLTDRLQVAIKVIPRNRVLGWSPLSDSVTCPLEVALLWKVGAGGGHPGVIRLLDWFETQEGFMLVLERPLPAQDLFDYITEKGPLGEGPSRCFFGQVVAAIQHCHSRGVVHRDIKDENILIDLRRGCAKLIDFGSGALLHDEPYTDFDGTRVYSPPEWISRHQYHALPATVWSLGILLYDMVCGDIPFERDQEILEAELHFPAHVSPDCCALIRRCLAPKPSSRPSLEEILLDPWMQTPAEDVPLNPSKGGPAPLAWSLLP
Description: as §1, §2
Assay was performed as described in Example A, using 4 μM [γ-^33P]ATP (20 μCi/mL), 1.0 μM PIM2tide and 1.5 nM GST-tagged recombinant full-length human Pim-2 in place of PIM-1.

Chain of PIM-1 (P11309 whole entry, species assumed): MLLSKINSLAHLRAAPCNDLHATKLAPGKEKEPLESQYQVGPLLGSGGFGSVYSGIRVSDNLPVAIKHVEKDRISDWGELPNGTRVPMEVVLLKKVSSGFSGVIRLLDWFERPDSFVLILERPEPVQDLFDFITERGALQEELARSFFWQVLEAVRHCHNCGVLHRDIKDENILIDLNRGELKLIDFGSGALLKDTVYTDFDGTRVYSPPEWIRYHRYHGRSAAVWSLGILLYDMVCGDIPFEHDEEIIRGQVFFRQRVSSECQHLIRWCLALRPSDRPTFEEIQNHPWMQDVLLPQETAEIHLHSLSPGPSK

SMILES | IC50 (PIM-1) [nM] | IC50 (recombinant rat PIM-3) [nM] | IC50 [1] [nM]
COc1cc2nc(-c3nnc4ccc([C@@H](N5CC[C@H](N)C5)C(F)(F)F)cn34)ccc2cc1F [Example 113, (S)-1-((R)-2,2,2-trifluoro-1-(3-(6-fluoro-7-methoxyquinolin-2-yl)-[1,2,4]triazolo[4,3-a]pyridin-6-yl)ethyl)pyrrolidin-3-amine hydrochloride] | 0.05 | 2.3 | > 100
CCC1(N)CCN([C@@H](c2ccc3nnc(-c4ccc5cccc(OC)c5n4)n3c2)C(F)(F)F)C1 (single isomer, unassigned; diastereomer 2) [Example 244, dihydrochloride] | 1.11 | 1 | 93
N[C@H]1CCN(C(c2ccc3nnc(-c4ccc5cc(F)c(OCCOC(=O)c6ccccc6)cc5n4)n3c2)C(F)(F)F)C1 (stereo in doubt) [Example 313, 2-((2-(6-((R)-1-((S)-3-aminopyrrolidin-1-yl)-2,2,2-trifluoroethyl)-[1,2,4]triazolo[4,3-a]pyridin-3-yl)-6-fluoroquinolin-7-yl)oxy)ethyl benzoate] | 1.15 | 6.1 | 5700
N[C@H]1CCN(C(c2ccc3nnc(-c4ccc5ccc(Br)cc5n4)n3c2)C(F)(F)F)C1 (stereo partly drawn) [Example 2, (3S)-1-(1-(3-(7-bromoquinolin-2-yl)-[1,2,4]triazolo[4,3-a]pyridin-6-yl)-2,2,2-trifluoroethyl)pyrrolidin-3-amine dihydrochloride] | 0.19 | 1 | 74
COc1cccc2ccc(-c3nnc4ccc([C@@H](N5CC[C@](C)(N)C5)C(F)(F)F)cn34)nc12 [Example 246, (S)-3-methyl-1-((R)-2,2,2-trifluoro-1-(3-(8-methoxyquinolin-2-yl)-[1,2,4]triazolo[4,3-a]pyridin-6-yl)ethyl)pyrrolidin-3-amine dihydrochloride] | 1.77 | 15 | > 1000
CCOc1cc2nc(-c3nnc4ccc([C@H](N5CC[C@H](CN)C5)C(F)(F)F)cn34)ccc2cc1F [Example 296, ((R)-1-((S)-1-(3-(7-ethoxy-6-fluoroquinolin-2-yl)-[1,2,4]triazolo[4,3-a]pyridin-6-yl)-2,2,2-trifluoroethyl)pyrrolidin-3-yl)methanamine hydrochloride] | 1.51 | 12 | > 1000
CCNC(=O)Cc1cccc2ccc(-c3nnc4ccc([C@@H](N5CC[C@H](N)C5)C(F)(F)F)cn34)nc12 [Example 235, 2-(2-(6-((R)-1-((S)-3-aminopyrrolidin-1-yl)-2,2,2-trifluoroethyl)-[1,2,4]triazolo[4,3-a]pyridin-3-yl)quinolin-8-yl)-N-ethylacetamide dihydrochloride] | 7.81 | 33 | > 1000
O[C@@H]1CN([C@H](c2ccc3nnc(-c4ccc5cccc(C6CC6)c5n4)n3c2)C(F)(F)F)C[C@H]1O [Example 78, (3R,4R)-1-((R)-1-(3-(8-cyclopropylquinolin-2-yl)-[1,2,4]triazolo[4,3-a]pyridin-6-yl)-2,2,2-trifluoroethyl)pyrrolidine-3,4-diol] | 0.24 | 10 | > 100
Cc1cc(OC(C)C)c2nc(-c3nnc4ccc([C@@H](N5CC[C@H](N)C5)C(F)(F)F)cn34)ccc2c1 [Example 128, (S)-1-((R)-2,2,2-trifluoro-1-(3-(8-isopropoxy-6-methylquinolin-2-yl)-[1,2,4]triazolo[4,3-a]pyridin-6-yl)ethyl)pyrrolidin-3-amine hydrochloride] | 0.58 | 0.7 | > 100
CC(C)(C)c1cccc2ccc(-c3nnc4ccc([C@@H](N5C[C@@H](N)[C@H](O)C5)C(F)(F)F)cn34)nc12 [Example 145, (3R,4R)-4-amino-1-((R)-1-(3-(8-tert-butylquinolin-2-yl)-[1,2,4]triazolo[4,3-a]pyridin-6-yl)-2,2,2-trifluoroethyl)pyrrolidin-3-ol dihydrochloride] | 0.25 | 0.7 | 30
CC(C)(C)c1cccc2ccc(-c3nnc4ccc([C@@H](N5CC[C@H](N)C5)C(F)(F)F)cn34)nc12 [Example 45, (S)-1-((R)-1-(3-(8-tert-butylquinolin-2-yl)-[1,2,4]triazolo[4,3-a]pyridin-6-yl)-2,2,2-trifluoroethyl)pyrrolidin-3-amine dihydrochloride] | 0.21 | 0.5 | 29
N[C@H]1CCN([C@H](c2ccc3nnc(-c4ccc5cccc(OCC6CC6)c5n4)n3c2)C(F)(F)F)C1 (single isomer, unassigned) [Example 11, dihydrochloride] | 0.2 | 1.1 | 75
Fc1ccc2ccc(-c3nnc4ccc([C@@H](N5C[C@@H]6C[C@H]5CN6)C(F)(F)F)cn34)nc2c1 [Example 63, 2-(6-((R)-1-((1S,4S)-2,5-diazabicyclo[2.2.1]heptan-2-yl)-2,2,2-trifluoroethyl)-[1,2,4]triazolo[4,3-a]pyridin-3-yl)-7-fluoro quinoline dihydrochloride] | 11.7 | 25 | > 100
CC1(COc2ccc3ccc(-c4nnc5ccc([C@@H](N6CC[C@H](N)C6)C(F)(F)F)cn45)nc3c2)COC1 [Example 198, (S)-1-((R)-2,2,2-trifluoro-1-(3-(7-((3-methyloxetan-3-yl)methoxy)quinolin-2-yl)-[1,2,4]triazolo[4,3-a]pyridin-6-yl)ethyl)pyrrolidin-3-amine diformate] | 0.14 | 0.2 | 123
CCOCCOc1ccc2ccc(-c3nnc4ccc([C@H](N5CC[C@](C)(N)C5)C(F)(F)F)cn34)nc2c1 [Example 306, (S)-1-((S)-1-(3-(7-(2-ethoxyethoxy)quinolin-2-yl)-[1,2,4]triazolo[4,3-a]pyridin-6-yl)-2,2,2-trifluoroethyl)-3-methylpyrrolidin-3-amine] | 0.28 | 0.7 | 281
CC(C)Oc1cccc2ccc(-c3nnc4ccc([C@H](N5CC[C@](C)(N)C5)C(F)(F)F)cn34)nc12 [Example 92, (S)-3-methyl-1-((S)-2,2,2-trifluoro-1-(3-(8-isopropoxyquinolin-2-yl)-[1,2,4]triazolo[4,3-a]pyridin-6-yl)ethyl)pyrrolidin-3-amine dihydrochloride] | 0.22 | 0.8 | 33
CC(C)(C)NC(=O)c1ccc2ccc(-c3nnc4ccc([C@@H](N5CC[C@H](N)C5)C(F)(F)F)cn34)nc2c1 [Example 46, 2-(6-((R)-1-((S)-3-aminopyrrolidin-1-yl)-2,2,2-trifluoroethyl)-[1,2,4]triazolo[4,3-a]pyridin-3-yl)-N-tert-butylquinoline-7-carboxamide dihydrochloride] | 0.07 | 0.3 | 33
N[C@H]1CCN([C@H](c2ccc3nnc(-c4ccc5ccc(O[C@@H]6CCC[C@H]6O)cc5n4)n3c2)C(F)(F)F)C1 (single isomer, unassigned; diastereomer 2) [Example 320, di-hydrochloride] | 0.14 | 0.3 | 111
